This is an account of results in publication PMC3921447, “Homologous and heterologous desensitization of guanylyl cyclase-B signaling in GH3 somatolactotropes” (Cell and Tissue Research, 2013).

Assay [1] concerns the target T1, GC-B (Rattus norvegicus, UniProt P16067).
T1 construct: rapid homologous desensitization of endogenous GC-B receptors in GH3 cells; endogenous in cells; host or cells: GH3 rat somatolactotrope cells
T1 sequence (P16067 17-1047): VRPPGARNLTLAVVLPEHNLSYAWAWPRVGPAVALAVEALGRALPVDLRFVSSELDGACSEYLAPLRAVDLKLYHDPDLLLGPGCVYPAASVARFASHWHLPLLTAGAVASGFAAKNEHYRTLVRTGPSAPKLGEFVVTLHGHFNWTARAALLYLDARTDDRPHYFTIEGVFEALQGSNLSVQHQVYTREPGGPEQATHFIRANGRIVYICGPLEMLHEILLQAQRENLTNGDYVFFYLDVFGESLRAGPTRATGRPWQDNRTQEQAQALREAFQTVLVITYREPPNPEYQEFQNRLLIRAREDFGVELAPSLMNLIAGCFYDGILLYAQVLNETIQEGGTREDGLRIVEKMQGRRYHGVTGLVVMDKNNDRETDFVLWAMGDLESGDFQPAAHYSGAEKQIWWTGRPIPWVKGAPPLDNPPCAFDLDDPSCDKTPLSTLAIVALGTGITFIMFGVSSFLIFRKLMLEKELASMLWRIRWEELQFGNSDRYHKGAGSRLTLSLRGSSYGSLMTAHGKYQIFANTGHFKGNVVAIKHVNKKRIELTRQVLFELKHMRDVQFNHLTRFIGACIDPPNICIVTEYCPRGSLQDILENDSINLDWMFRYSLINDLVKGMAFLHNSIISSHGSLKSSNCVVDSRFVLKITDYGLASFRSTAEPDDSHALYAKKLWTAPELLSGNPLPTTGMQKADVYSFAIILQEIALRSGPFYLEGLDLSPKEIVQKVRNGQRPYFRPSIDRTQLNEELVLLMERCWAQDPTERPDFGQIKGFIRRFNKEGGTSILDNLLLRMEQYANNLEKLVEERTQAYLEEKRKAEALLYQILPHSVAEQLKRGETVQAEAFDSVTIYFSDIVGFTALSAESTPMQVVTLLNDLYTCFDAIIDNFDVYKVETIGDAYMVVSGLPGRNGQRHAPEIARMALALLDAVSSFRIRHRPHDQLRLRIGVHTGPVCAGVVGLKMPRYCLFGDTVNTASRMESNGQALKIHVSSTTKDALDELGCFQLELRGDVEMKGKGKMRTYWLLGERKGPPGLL
The assay can be described thus: Heterologous desensitization of CNP-stimulated (GC-B) cGMP accumulation in GH3 cells. Format: cell-based. An excerpt: (§1) Sphingolipids and calcium have been implicated in regulating natriuretic peptide signaling (Abbey-Hosch et al. [2004]; Abbey and Potter [2002]). Therefore, we examined the role of sphingosine-1-phosphate (S1P) on CNP-stimulated cGMP accumulation. […] However, S1P pre-treatment did cause desensitization of CNP-stimulated cGMP accumulation (by 30 ± 2.7 % compared with control, **P < 0.01).
(§2) Fig. 6 Evidence of sphingosine-mediated but not calcium-mediated, heterologous desensitization of GC-B signaling in GH3 somatolactotrope cells. GH3 cells were pre-treated with PSS containing either (a, b) 10 μM sphingosine-1-phosphate (S1P) or (c, d) 1 μM A23187 (calcium ionophore) for 30 min in the absence of IBMX, before a 15-min stimulation with either 100 nM CNP (a, c) or 100 nM ANP (b, d) in the presence of 1 mM IBMX.
(§3) Subsequent experiments examined the potential regulation of GC-B signaling by other peptide hormones. To determine whether the GC-B receptor underwent heterologous desensitization in GH3 cells, the effect of three known activators of PKC on CNP-stimulated cGMP accumulation was analyzed. […] To establish whether the TRH-induced heterologous desensitization of GC-B signaling was PKC-dependent, GH3 cells were pre-treated with either 0 or 1 μM GF109203X for 30 min to inhibit PKC activity. After this, cells were further pre-treated in the absence or presence of GF109203X and 0 or 100 nM TRH for a further 30 min, prior to stimulation with 0 or 100 nM CNP for a final 15-min stimulation in the presence of 1 mM IBMX.
(§4) Fig. 7 Protein kinase C (PKC)-dependent heterologous desensitization mediates the effects of thyrotrophin-releasing hormone (TRH) on CNP-stimulated GC-B signaling in GH3 somatolactotrope cells. a GH3 cells were pre-treated with PSS containing either 0 or 100 nM TRH, phorbol-12-myristate-13-acetate (PMA), or pituitary adenylate cyclase-activating polypeptide (PACAP) for 30 min in the absence of IBMX, before a 15-min stimulation with either 0 or 100 nM CNP in the presence of 1 mM IBMX.

For the next assay, the target named is T2, GC-A (Rattus norvegicus, UniProt P18910).
T2 construct: Evidence of homologous desensitization of endogenous GC-A- and GC-B-mediated signaling in GH3 cells; endogenous in cells; host or cells: GH3 rat somatolactotrope cells
T2 sequence (P18910 29-1057): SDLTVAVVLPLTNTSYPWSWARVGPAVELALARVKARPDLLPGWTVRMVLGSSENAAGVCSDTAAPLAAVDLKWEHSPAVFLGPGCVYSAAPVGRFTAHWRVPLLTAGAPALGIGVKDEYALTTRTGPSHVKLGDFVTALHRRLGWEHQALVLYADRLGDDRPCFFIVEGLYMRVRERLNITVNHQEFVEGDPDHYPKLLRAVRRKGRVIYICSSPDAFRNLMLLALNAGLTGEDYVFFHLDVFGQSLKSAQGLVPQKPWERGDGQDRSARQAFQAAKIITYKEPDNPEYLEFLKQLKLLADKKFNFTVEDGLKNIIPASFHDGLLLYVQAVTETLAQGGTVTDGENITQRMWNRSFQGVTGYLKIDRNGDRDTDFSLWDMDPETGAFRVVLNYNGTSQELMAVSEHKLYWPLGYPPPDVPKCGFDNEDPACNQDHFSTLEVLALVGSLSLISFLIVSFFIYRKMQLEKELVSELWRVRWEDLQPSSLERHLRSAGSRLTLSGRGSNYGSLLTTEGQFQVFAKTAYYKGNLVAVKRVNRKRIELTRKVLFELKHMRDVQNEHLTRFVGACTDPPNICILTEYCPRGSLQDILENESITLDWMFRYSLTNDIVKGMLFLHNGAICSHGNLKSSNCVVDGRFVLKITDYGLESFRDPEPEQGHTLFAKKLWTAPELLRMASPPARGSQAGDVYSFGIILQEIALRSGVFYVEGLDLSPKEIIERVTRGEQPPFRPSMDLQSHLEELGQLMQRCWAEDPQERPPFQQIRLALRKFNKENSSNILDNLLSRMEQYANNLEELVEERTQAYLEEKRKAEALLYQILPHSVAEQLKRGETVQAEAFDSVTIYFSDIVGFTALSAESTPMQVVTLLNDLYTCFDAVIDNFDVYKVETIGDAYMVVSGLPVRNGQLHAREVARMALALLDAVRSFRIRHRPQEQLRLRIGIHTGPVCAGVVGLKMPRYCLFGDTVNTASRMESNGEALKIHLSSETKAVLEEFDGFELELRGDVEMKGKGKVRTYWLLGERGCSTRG
The assay can be described thus: Heterologous desensitization of ANP-stimulated (GC-A) cGMP accumulation in GH3 cells. The class given is cell-based.
Description: as §1
Fig. 6 Evidence of sphingosine-mediated but not calcium-mediated, heterologous desensitization of GC-B signaling in GH3 somatolactotrope cells. […]

Assay [2] concerns the target T1, GC-B. The assay can be described thus: Effect of protein phosphatase inhibitors on rapid homologous desensitization of CNP-stimulated cGMP accumulation in GH3 cells. Format: cell-based. The note with it: for rate of cGMP accumulation from 5 to 15 min (desensitization): 100 nM CNP, 1 mM IBMX, 30 min pre-treatment with 100 nM OA, 1 nM cypermethrin or 1 mM Na3VO4, control = CNP alone, n = 3; for reversal of the failure to maintain the initial rate of cGMP accumulation: 30 min pre-treatment with phosphatase inhibitor, then 100 nM CNP, discussion statement. As to the method:
Fig. 2 Rapid homologous desensitization of CNP-dependent but not ANP-dependent cGMP accumulation in GH3 cells. Cells were treated with PSS containing either (a) 100 nM CNP or (b) 100 nM ANP for 0–15 min in the presence of 1 mM IBMX.
Similar short time-courses were performed, except that some cells were pre-treated with 100 nM okadaic acid (OA, a PP2A inhibitor), 1 nM cypermethrin (a PP2B inhibitor), or 1 mM sodium orthovanadate (Na3VO4, a protein tyrosine phosphatase inhibitor) for 30 min prior to CNP treatment (Fig. 2c).

The test system of assay [3] is GC-B. The settings on record: NIH3T3, A10, 293 T cells; ref Abbey-Hosch et al. [2004], [2005]; cited from earlier work. An excerpt: Heterologous desensitization of the natriuretic peptide receptors has been widely reported. Sphinogosine signaling is implicated in GC-B desensitization in NIH3T3 fibroblasts, A10 vascular smooth muscle cells and 293 T cells (Abbey-Hosch et al. [2004], [2005]). […] In the current study, we observed a modest effect of S1P pre-treatment of CNP-stimulated cGMP accumulation in GH3 ce ...

Another assay deals with GH3 cells. Kind of assay: Basal cGMP accumulation in GH3 cells after pre-treatment. Format: cell-based, rat. The note with it: 30 min pre-treatment.
Description: as §1, §2, §3, §4

The mark [4] stands for this setting: 100 nM TRH, PMA or PACAP, ns, P > 0.05, Fig. 7a.

For the compound `CNc1ccc2oc(C[C@H]3O[C@@]4(CC[C@H]3C)O[C@H]([C@H](C)C(=O)c3ccc[nH]3)[C@H](C)C[C@H]4C)nc2c1C(=O)O` [A23187], the “effect on CNP-stimulated cGMP accumulation” value on GC-B [1] (10 μM A23187 30 min pre-treatment, then 100 nM CNP 15 min, Fig. 6c) is “failed to alter either CNP- or ANP-stimulated cGMP accumulation”. Also, the “effect on ANP-stimulated cGMP accumulation” value at GC-A (10 μM A23187 30 min pre-treatment, then 100 nM ANP 15 min, Fig. 6d) was “failed to alter either CNP- or ANP-stimulated cGMP accumulation”.

On to `[Na+].[Na+].[Na+].[O]=[V]([O-])([O-])[O-]` [Na3VO4, sodium orthovanadate], for which, on GC-B [2], the “rate of cGMP accumulation from 5 to 15 min (desensitization)” value (from here on “rate … (desensitization)”) was “failed to maintain a significant rate of cGMP accumulation” and the “reversal of the failure to maintain the initial rate of cGMP accumulation” value (“reversal of the failure” for short) is “failed to reverse the apparent homologous desensitization”.

`C=C1[C@@H](O)[C@@H]2O[C@]3(CC[C@H](/C=C/[C@@H](C)[C@@H]4CC(C)=C[C@@]5(O[C@H](C[C@@](C)(O)C(=O)O)CC[C@H]5O)O4)O3)CC[C@H]2O[C@@H]1[C@@H](O)C[C@H](C)[C@H]1O[C@@]2(CCCCO2)CC[C@H]1C` [OA, okadaic acid]: on GC-B [2], the “rate … (desensitization)” value is recorded as “maintained a significant rate of cGMP accumulation from 5 to 15 min” and the “reversal of the failure” value was “partially reversed the failure to maintain the initial rate of cGMP accumulation”.

In the case of `CCCCCCCCCCCCC/C=C/[C@@H](O)[C@@H](N)COP(=O)(O)O` [S1P, sphingosine-1-phosphate], the “desensitization (reduction) of CNP-stimulated cGMP accumulation vs control” value on GC-B [1] (10 μM S1P 30 min pre-treatment without IBMX, then 100 nM CNP 15 min with 1 mM IBMX, **P < 0.01, n = 3, Fig. 6a) amounted to 30 ± 2.7%. The “mechanism of GC-B desensitization” value with GC-B [3] is on record as “does not require PKC activation but is reliant on the elevation of intracellular Ca^2+ levels”. In addition, in the assay with GH3 cells (10 μM S1P, Fig. 6a), the “basal cGMP accumulation” value is “failed to significantly alter basal cGMP accumulation”. The “desensitization of ANP-stimulated cGMP accumulation” value on GC-A (10 μM S1P 30 min pre-treatment, then 100 nM ANP 15 min with 1 mM IBMX, ns, P > 0.05, Fig. 6b) is given as “did not result in desensitization of ANP-stimulated cGMP accumulation”.

On to `CC1(C)C(C=C(Cl)Cl)C1C(=O)OC(C#N)c1cccc(Oc2ccccc2)c1` (stereo not drawn) [cypermethrin], for which, at GC-B [2], the “rate … (desensitization)” value is “failed to maintain a significant rate of cGMP accumulation” and the “reversal of the failure” value is given as “failed to reverse the apparent homologous desensitization”.

As to `C[C@H](CCC(=O)O)C[C@H](C)C[C@H](C)C(=O)/C=C(\O)[C@H](C)C[C@H](C)C/C=C/[C@@H](C)[C@@H](O)[C@@H](C)[C@@H](O)C[C@@H]1CC[C@@](C)([C@H]2CC[C@@](C)([C@@H](C)O)O2)O1` [ionomycin], the “mechanism of GC-B desensitization” value in the assay with GC-B [3] is on record as “having a similar effect”.

For the compound “pituitary adenylate cyclase-activating polypeptide [PACAP]”, on GC-B [1] (100 nM PACAP 30 min pre-treatment, then 100 nM CNP 15 min with 1 mM IBMX, ns, P > 0.05, Fig. 7a), the “effect on CNP-stimulated cGMP accumulation” value is on record as “failed to alter CNP-stimulated cGMP accumulation”. Further, in the assay on GH3 cells (setting [4]), the “basal cGMP accumulation” value was “failed to alter basal cGMP accumulation”.

As for thyrotrophin-releasing hormone [TRH], on GC-B [1] (100 nM TRH 30 min pre-treatment without GF109203X, then 100 nM CNP 15 min with 1 mM IBMX, P < 0.001, n = 3, Fig. 7b), the “CNP-stimulated cGMP, % of control response to CNP (reduced to)” value was found to be 20.1 ± 5.4%. At GC-B [1] (100 nM, 30 min pre-treatment without IBMX, then 100 nM CNP 15 min with 1 mM IBMX, ***P < 0.001, n = 3, Fig. 7a), the “reduction in CNP-stimulated cGMP accumulation compared with control” value was determined as 44.6 ± 2.5%. In addition, the “basal cGMP accumulation” value with GH3 cells (setting [4]) is listed as “failed to alter basal cGMP accumulation”.
